In patent US7807720B2 (priority 2007, dated 2010):
pKi: −log10 of the molar value.

Biological target: Bacillus anthracis lethal factor protease (Bacillus anthracis, UniProt P15917)
Test: biochemical

Bacillus anthracis lethal factor protease, sequence (P15917 34-809 limits assumed): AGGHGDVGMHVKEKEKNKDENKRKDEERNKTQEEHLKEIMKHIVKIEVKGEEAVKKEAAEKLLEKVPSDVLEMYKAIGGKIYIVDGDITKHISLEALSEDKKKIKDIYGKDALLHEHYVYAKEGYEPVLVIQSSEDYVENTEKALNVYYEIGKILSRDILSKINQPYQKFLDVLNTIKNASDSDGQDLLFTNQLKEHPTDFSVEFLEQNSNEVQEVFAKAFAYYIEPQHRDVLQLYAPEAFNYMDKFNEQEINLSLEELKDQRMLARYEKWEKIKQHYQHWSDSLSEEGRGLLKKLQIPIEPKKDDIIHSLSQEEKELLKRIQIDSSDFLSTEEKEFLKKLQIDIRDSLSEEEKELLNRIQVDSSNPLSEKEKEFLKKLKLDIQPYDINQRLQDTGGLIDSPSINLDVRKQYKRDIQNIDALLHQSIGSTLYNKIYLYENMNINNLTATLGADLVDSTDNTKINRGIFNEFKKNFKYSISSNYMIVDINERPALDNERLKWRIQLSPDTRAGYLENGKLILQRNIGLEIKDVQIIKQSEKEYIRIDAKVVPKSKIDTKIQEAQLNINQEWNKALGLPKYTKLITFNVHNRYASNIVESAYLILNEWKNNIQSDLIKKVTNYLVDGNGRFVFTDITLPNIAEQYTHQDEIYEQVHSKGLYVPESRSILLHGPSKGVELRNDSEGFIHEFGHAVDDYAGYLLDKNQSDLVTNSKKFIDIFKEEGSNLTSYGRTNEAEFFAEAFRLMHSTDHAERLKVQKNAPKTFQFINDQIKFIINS

SMILES | pKi
Cc1cc(CCCCCC[C@@H](Cc2ccc(Cl)cc2)C(=O)NO)ccc1F [Compound 168134, (S)-2-(4-Chloro-benzyl)-8-(4-fluoro-3-methyl-phenyl)-octanoic acid hydroxyamide] | 4.19
Cc1cc(COCCCC[C@@H](Cc2cc(C)c(F)c(C)c2)C(=O)NO)ccc1F [Compound 168141, (S)-2-(4-fluoro-3,5-dimethylbenzyl)-6-(4-fluoro-3-methylbenzyloxy)-N-hydroxyhexanamide] | 5.44
Cc1cc(CCCN(C)CC[C@@H](Cc2ccc(Cl)cc2)C(=O)NO)ccc1F [Compound 168150, 2R-(4-Chloro-benzyl)-4-{[3-(4-fluoro-3-methyl-phenyl)-propyl]-methyl-amino}-N-hydroxy-butyramide] | 5.76
Cc1cc(C[C@@H](CCCCCC(C)C)C(=O)NO)cc(C)c1F [Compound 168052, (R)-2-(4-Fluoro-3,5-dimethyl-benzyl)-8-methyl-nonanoic acid hydroxyamide] | 3.52
Cc1cc(C[C@H](CCCCNCc2cc3ccccc3s2)C(=O)NO)cc(C)c1F [Compound 168180, (S)-6-[(Benzo[b]thiophen-2-ylmethyl)-amino]-2-(4-fluoro-3,5-dimethyl-benzyl)-hexanoic acid hydroxyamide] | 6.40
Cc1cc(C[C@H](CCCCNCc2ccc(Cl)cc2)C(=O)NO)cc(C)c1F [Compound 168125, (S)-6-(4-Chloro-benzylamino)-2-(4-fluoro-3,5-dimethyl-benzyl)-hexanoic acid hydroxyamide] | 6.72
Cc1cc(C[C@H](CCCCNCCc2ccc(F)cc2)C(=O)NO)cc(C)c1F [Compound 168122, (S)-2-(4-Fluoro-3,5-dimethyl-benzyl)-6-[2-(4-fluoro-phenyl)-ethylamino]-hexanoic acid hydroxyamide] | 7.19
Cc1cc(C[C@H](CCCCNCc2cccc(-c3ccccc3)c2)C(=O)NO)ccc1F [Compound 168140, (S)-6-[(Biphenyl-3-ylmethyl)-amino]-2-(4-fluoro-3-methyl-benzyl)-hexanoic acid hydroxyamide] | 6.15
O=C(NO)[C@@H](CCCCNCc1ccc(F)cc1)Cc1ccc(F)c(Cl)c1 [Compound 168164, (S)-2-(3-Chloro-4-fluoro-benzyl)-6-(4-fluoro-benzylamino)-hexanoic acid hydroxyamide] | 6.70
Cc1cc(CC(C)C(=O)NO)cc(C)c1F (centres unmarked) [Compound 167858, 2-(4-fluoro-3,5-dimethylbenzyl)-N-hydroxypropanamide] | 6.40
CCC(CC)CNCCCC[C@@H](Cc1cc(C)c(F)c(C)c1)C(=O)NO [Compound 168171, (S)-6-(2-Ethyl-butylamino)-2-(4-fluoro-3,5-dimethyl-benzyl)-hexanoic acid hydroxyamide] | 6.60
Cc1cc(C[C@@H](C(=O)NO)c2ccc(Br)cc2)cc(C)c1F [Compound 168009, (R)-2-(4-Bromo-phenyl)-3-(4-fluoro-3,5-dimethyl-phenyl)-N-hydroxy-propionamide] | 6.11
Cc1cc(C[C@H](C(=O)NO)c2ccc(Br)cc2)cc(C)c1F [Compound 167973, (S)-2-(4-Bromo-phenyl)-3-(4-fluoro-3,5-dimethyl-phenyl)-N-hydroxy-propionamide] | 5.24
Cc1cc(C[C@H](CCCCNCCCc2ccc(F)cc2)C(=O)NO)cc(C)c1F [Compound 168123, (S)-2-(4-Fluoro-3,5-dimethyl-benzyl)-6-[3-(4-fluoro-phenyl)-propylamino]-hexanoic acid hydroxyamide] | 7.33
Cc1cc(CCCN(C)CC[C@@H](Cc2ccc(Cl)cc2)C(=O)NO)cc(C)c1F [Compound 168156, 2R-(4-Chloro-benzyl)-4-{[3-(4-fluoro-3,5-dimethyl-phenyl)-propyl]-methyl-amino}-N-hydroxy-butyramide] | 5.48
Cc1cc(CNCCCC[C@@H](Cc2ccc(F)c(C)c2)C(=O)NO)ccc1F [Compound 168139, (S)-2-(4-Fluoro-3-methyl-benzyl)-6-(4-fluoro-3-methyl-benzylamino)-hexanoic acid hydroxyamide] | 6.55
Cc1cc(CNCCCC[C@@H](Cc2cc(C)c(F)c(C)c2)C(=O)NO)ccc1F [Compound 168050, (S)-2-(4-Fluoro-3,5-dimethyl-benzyl)-6-(4-fluoro-3-methyl-benzylamino)-hexanoic acid hydroxyamide] | 7.13
Cc1cc(CC(C(=O)NO)c2ccc(Br)cc2)cc(C)c1F (centres unmarked) [Compound 167856, 2-(4-Bromo-phenyl)-3-(4-fluoro-3,5-dimethyl-phenyl)-N-hydroxy-propionamide] | 6.21

SMILES | pKi
Cc1cc(CC(CCN(C)CCCc2ccc(F)cc2)C(=O)NO)cc(C)c1F (stereo in doubt) [Compound 168172, (S)-2-(4-Fluoro-3,5-dimethyl-benzyl)-4-{[3-(4-fluoro-phenyl)-propyl]-methyl-amino}-N-hydroxy-butyramide] | 6.54
Cc1cc(CCCCCC[C@@H](Cc2cc(C)c(F)c(C)c2)C(=O)NO)ccc1F [Compound 168124, (S)-2-(4-Fluoro-3,5-dimethyl-benzyl)-8-(4-fluoro-3-methyl-phenyl)-octanoic acid hydroxyamide] | 4.99
CCCCC(Cc1cc(C)c(F)c(C)c1)C(=O)NO (centres unmarked) [Compound 167533, 2-(4-Fluoro-3,5-dimethyl-benzyl)-hexanoic acid hydroxyamide] | 5.92
Cc1cc(CCC(=O)NO)cc(C)c1F [Compound 167857, 3-(4-Fluoro-3,5-dimethyl-phenyl)-N-hydroxy-propionamide] | 5.87
Cc1cc(C[C@H](CCC/C=C/C(C)C)C(=O)NO)cc(C)c1F [Compound 168023, (S)-2-(4-Fluoro-3,5-dimethyl-benzyl)-8-methyl-non-6-enoic acid hydroxyamide] | 5.71
Cc1cc(C[C@H](CCCCNCc2ccc3c(c2)OCO3)C(=O)NO)cc(C)c1F [Compound 168148, (S)-6-[(Benzo[1,3]dioxol-5-ylmethyl)-amino]-2-(4-fluoro-3,5-dimethyl-benzyl)-hexanoic acid hydroxyamide] | 6.66
Cc1cc(C[C@H](CCCCN(C)Cc2ccc(F)cc2)C(=O)NO)cc(C)c1F [Compound 168126, (S)-6-[(4-Fluoro-benzyl)-methyl-amino]-2-(4-fluoro-3,5-dimethyl-benzyl)-hexanoic acid hydroxyamide] | 6.26
CCCC[C@@H](Cc1ccccc1)C(=O)NO (stereo in doubt) [Compound 167550, 2-Benzyl-hexanoic acid hydroxyamide] | 4.19
Cc1cc(C[C@H](CCCCNCc2cnccn2)C(=O)NO)cc(C)c1F [Compound 168179, (S)-2-(4-Fluoro-3,5-dimethyl-benzyl)-6-[(pyrazin-2-ylmethyl)-amino]-hexanoic acid hydroxyamide] | 6.15
Cc1cc(C[C@H](CCCCNc2ccc(F)cc2)C(=O)NO)cc(C)c1F [Compound 168132, (S)-2-(4-Fluoro-3,5-dimethyl-benzyl)-6-(4-fluoro-phenylamino)-hexanoic acid hydroxyamide] | 5.65
Cc1cc(C[C@H](CCCCCC(C)C)C(=O)NO)cc(C)c1F [Compound 168031, (S)-2-(4-Fluoro-3,5-dimethyl-benzyl)-8-methyl-nonanoic acid hydroxyamide] | 5.58
Cc1cc(C[C@H](CCCCNCc2ccccc2)C(=O)NO)cc(C)c1F [Compound 168149, (S)-6-Benzylamino-2-(4-fluoro-3,5-dimethyl-benzyl)-hexanoic acid hydroxyamide] | 6.89
Cc1cc(CC(C#N)C(=O)NO)cc(C)c1F (centres unmarked) [Compound 167914, 2-Cyano-3-(4-fluoro-3,5-dimethyl-phenyl)-N-hydroxy-propionamide] | 4.32
CCCCC(Cc1ccc(F)c(C)c1)C(=O)NO (centres unmarked) [Compound 167266, 2-(4-Fluoro-3-methyl-benzyl)-hexanoic acid hydroxyamide] | 5.64
Cc1cc(C[C@@H](CCC/C=C/C(C)C)C(=O)NO)cc(C)c1F [Compound 168051, (R)-2-(4-Fluoro-3,5-dimethyl-benzyl)-8-methyl-non-6-enoic acid hydroxyamide] | 4.29
Cc1ccc(CNCCCC[C@@H](Cc2cc(C)c(F)c(C)c2)C(=O)NO)o1 [Compound 168157, (S)-2-(4-Fluoro-3,5-dimethyl-benzyl)-6-[(5-methyl-furan-2-ylmethyl)-amino]-hexanoic acid hydroxyamide] | 6.89
Cc1cc(C[C@H](CCCCNCC2CCCCC2)C(=O)NO)cc(C)c1F [Compound 168170, (S)-6-(Cyclohexylmethyl-amino)-2-(4-fluoro-3,5-dimethyl-benzyl)-hexanoic acid hydroxyamide] | 6.40
